Data reported in ChEMBL document CHEMBL4507274 (2021).

Legend:
[1] = biological target: T1, Serine/threonine-protein kinase 3 (Homo sapiens) (UniProt Q13188); details: Compound concentration 100.0 nM
T1 sequence (whole entry): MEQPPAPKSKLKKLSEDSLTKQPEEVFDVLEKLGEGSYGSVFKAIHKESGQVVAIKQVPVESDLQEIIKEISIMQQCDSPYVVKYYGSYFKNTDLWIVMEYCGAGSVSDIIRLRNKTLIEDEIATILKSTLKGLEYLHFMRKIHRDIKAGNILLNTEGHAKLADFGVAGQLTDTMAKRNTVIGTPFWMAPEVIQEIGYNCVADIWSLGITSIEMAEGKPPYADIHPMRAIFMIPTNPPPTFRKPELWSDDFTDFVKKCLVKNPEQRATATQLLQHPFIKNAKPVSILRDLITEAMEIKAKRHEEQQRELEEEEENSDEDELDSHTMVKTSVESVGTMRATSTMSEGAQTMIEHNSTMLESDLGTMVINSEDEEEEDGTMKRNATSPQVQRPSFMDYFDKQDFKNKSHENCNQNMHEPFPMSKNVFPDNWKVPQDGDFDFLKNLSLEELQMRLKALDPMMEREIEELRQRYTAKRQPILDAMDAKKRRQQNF

[2] = biological target: Phosphatidylinositol 4,5-bisphosphate 3-kinase catalytic subunit delta isoform (Homo sapiens) (UniProt O00329); details: Compound concentration 100.0 nM
[3] = biological target: Phosphatidylinositol 4-phosphate 5-kinase type-1 gamma (Homo sapiens) (UniProt O60331); details: Compound concentration 100.0 nM
[4] = biological target: Inhibitor of nuclear factor kappa-B kinase subunit beta (Homo sapiens) (UniProt O14920); details: Compound concentration 100.0 nM
[5] = biological target: Casein kinase I isoform alpha-like (Homo sapiens) (UniProt Q8N752); details: Compound concentration 100.0 nM
[6] = biological target: Ephrin type-B receptor 6 (Homo sapiens) (UniProt O15197); details: Compound concentration 100.0 nM
[7] = biological target: Proto-oncogene tyrosine-protein kinase ROS (Homo sapiens) (UniProt P08922); details: Compound concentration 100.0 nM
[8] = biological target: T2, MAP kinase-activated protein kinase 5 (Homo sapiens) (UniProt Q8IW41); details: Compound concentration 100.0 nM
T2 sequence (whole entry): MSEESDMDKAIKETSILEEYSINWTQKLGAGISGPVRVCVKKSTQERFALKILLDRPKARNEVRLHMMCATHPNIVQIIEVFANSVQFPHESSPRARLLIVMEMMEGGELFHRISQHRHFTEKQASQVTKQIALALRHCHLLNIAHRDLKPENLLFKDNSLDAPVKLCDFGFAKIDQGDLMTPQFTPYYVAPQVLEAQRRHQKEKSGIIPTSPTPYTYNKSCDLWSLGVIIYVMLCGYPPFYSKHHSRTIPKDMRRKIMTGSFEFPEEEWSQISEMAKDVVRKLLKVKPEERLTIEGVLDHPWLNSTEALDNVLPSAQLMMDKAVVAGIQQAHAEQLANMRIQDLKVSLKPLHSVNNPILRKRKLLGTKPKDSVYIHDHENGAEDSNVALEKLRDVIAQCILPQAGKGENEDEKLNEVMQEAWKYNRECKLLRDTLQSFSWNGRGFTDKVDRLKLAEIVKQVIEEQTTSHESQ

[9] = biological target: SRSF protein kinase 3 (Homo sapiens) (UniProt Q9UPE1); details: Compound concentration 100.0 nM
[10] = biological target: 5'-AMP-activated protein kinase catalytic subunit alpha-2 (Homo sapiens) (UniProt P54646); details: Compound concentration 100.0 nM
[11] = biological target: Cyclin-dependent kinase 9 (Homo sapiens) (UniProt P50750); details: Compound concentration 100.0 nM
[12] = biological target: Serine/threonine-protein kinase DCLK1 (Homo sapiens) (UniProt O15075); details: Compound concentration 100.0 nM
[13] = biological target: Beta-adrenergic receptor kinase 1 (Homo sapiens) (UniProt P25098); details: Compound concentration 100.0 nM
[14] = biological target: Microtubule-associated serine/threonine-protein kinase 1 (Homo sapiens) (UniProt Q9Y2H9); details: Compound concentration 100.0 nM
[15] = biological target: Serine/threonine-protein kinase SIK1 (Homo sapiens) (UniProt P57059); details: Compound concentration 100.0 nM
[16] = biological target: T3, Dual specificity mitogen-activated protein kinase kinase 6 (Homo sapiens) (UniProt P52564); details: Compound concentration 100.0 nM
T3 sequence (whole entry): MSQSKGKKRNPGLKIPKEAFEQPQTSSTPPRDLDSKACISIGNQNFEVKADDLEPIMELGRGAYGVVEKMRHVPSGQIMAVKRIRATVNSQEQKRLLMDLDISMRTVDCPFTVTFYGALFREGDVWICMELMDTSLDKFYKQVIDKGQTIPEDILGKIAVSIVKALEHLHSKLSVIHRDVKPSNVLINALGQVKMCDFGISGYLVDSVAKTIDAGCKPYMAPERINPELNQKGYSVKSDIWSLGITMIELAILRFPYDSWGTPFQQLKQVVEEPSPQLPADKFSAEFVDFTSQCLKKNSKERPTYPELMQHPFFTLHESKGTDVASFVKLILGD

[17] = system: Phosphatidylinositol 4,5-bisphosphate 3-kinase catalytic subunit alpha isoform (Homo sapiens), P42336 [I800L]; details: Compound concentration 100.0 nM
[18] = biological target: NUAK family SNF1-like kinase 2 (Homo sapiens) (UniProt Q9H093); details: Compound concentration 100.0 nM
[19] = biological target: Serine/threonine-protein kinase TAO3 (Homo sapiens) (UniProt Q9H2K8); details: Compound concentration 100.0 nM
[20] = biological target: Death-associated protein kinase 2 (Homo sapiens) (UniProt Q9UIK4); details: Compound concentration 100.0 nM
[21] = biological target: Serine/threonine-protein kinase 38-like (Homo sapiens) (UniProt Q9Y2H1); details: Compound concentration 100.0 nM
[22] = biological target: Sodium-dependent serotonin transporter (Homo sapiens) (UniProt P31645); details: Compound concentration 10.0 uM
[23] = biological target: Serine/threonine-protein kinase mTOR (Homo sapiens) (UniProt P42345); details: Compound concentration 100.0 nM
[24] = biological target: Receptor-interacting serine/threonine-protein kinase 2 (Homo sapiens) (UniProt O43353); details: Compound concentration 100.0 nM
[25] = biological target: MAP kinase-interacting serine/threonine-protein kinase 2 (Homo sapiens) (UniProt Q9HBH9); details: Compound concentration 100.0 nM
[26] = biological target: 5-hydroxytryptamine receptor 7 (Homo sapiens) (UniProt P34969); details: Compound concentration 10.0 uM
[27] = biological target: Leucine-rich repeat serine/threonine-protein kinase 2 (Homo sapiens) (UniProt Q5S007); details: Compound concentration 100.0 nM

Chain of Sodium-dependent serotonin transporter (Homo sapiens) (P31645 whole entry, looked up): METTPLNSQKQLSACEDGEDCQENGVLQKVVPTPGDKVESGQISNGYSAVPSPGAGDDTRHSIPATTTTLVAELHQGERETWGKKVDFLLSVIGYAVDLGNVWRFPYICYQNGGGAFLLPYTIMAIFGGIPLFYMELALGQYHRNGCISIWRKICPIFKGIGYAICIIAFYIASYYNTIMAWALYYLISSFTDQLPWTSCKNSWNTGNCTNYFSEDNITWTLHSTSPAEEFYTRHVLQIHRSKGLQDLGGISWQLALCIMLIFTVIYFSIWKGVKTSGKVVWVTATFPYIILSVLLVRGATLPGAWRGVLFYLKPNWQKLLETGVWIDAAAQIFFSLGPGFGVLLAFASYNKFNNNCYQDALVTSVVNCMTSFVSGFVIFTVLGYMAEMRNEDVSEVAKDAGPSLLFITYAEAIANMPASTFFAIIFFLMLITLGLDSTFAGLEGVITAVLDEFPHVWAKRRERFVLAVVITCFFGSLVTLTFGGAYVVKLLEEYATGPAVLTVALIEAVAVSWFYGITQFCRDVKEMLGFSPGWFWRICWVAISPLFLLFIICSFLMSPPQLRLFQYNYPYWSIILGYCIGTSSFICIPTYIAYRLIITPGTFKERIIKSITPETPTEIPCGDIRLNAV
Chain of Serine/threonine-protein kinase DCLK1 (Homo sapiens) (O15075 whole entry): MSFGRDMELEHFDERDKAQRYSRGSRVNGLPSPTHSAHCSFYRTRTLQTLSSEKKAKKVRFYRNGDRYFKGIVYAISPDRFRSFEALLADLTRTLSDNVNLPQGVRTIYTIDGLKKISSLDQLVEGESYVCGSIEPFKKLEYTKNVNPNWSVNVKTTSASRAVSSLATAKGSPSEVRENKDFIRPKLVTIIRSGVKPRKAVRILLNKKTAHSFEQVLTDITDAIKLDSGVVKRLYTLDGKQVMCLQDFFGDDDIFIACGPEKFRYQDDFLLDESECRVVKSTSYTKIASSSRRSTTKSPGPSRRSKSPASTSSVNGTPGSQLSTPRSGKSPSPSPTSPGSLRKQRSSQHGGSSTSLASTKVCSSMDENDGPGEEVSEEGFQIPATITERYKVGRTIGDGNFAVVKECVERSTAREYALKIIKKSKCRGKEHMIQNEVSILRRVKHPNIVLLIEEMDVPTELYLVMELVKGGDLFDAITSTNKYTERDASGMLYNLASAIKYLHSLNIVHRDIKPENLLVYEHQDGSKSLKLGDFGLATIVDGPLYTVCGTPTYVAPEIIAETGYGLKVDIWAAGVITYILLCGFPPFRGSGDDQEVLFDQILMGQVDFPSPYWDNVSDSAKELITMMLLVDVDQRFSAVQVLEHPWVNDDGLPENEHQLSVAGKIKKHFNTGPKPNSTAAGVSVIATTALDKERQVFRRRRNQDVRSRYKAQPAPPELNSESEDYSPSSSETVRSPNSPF
Chain of Serine/threonine-protein kinase TAO3 (Homo sapiens) (Q9H2K8 whole entry): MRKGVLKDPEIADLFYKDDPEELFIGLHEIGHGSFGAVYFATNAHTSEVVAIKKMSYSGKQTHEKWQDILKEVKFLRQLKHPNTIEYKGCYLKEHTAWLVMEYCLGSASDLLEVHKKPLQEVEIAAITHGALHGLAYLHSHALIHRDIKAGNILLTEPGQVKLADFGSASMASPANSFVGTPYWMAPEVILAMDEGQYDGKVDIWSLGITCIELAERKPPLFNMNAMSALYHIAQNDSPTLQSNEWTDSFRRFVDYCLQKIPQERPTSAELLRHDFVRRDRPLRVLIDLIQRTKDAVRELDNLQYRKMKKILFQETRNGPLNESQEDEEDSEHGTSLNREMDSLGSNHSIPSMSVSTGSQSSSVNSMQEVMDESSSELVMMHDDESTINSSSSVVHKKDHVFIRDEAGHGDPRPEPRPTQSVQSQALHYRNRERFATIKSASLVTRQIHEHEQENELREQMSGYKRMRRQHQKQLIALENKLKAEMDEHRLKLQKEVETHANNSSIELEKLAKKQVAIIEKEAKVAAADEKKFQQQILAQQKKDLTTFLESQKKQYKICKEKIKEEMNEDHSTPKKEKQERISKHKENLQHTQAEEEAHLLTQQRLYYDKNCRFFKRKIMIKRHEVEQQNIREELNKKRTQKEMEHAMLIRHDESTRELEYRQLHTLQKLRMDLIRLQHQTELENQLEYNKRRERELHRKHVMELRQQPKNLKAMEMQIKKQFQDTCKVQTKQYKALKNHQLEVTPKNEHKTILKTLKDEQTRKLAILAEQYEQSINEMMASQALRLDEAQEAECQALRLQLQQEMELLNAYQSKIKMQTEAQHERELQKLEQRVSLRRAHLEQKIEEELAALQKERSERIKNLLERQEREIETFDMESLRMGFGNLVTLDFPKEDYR
Chain of SRSF protein kinase 3 (Homo sapiens) (Q9UPE1 whole entry): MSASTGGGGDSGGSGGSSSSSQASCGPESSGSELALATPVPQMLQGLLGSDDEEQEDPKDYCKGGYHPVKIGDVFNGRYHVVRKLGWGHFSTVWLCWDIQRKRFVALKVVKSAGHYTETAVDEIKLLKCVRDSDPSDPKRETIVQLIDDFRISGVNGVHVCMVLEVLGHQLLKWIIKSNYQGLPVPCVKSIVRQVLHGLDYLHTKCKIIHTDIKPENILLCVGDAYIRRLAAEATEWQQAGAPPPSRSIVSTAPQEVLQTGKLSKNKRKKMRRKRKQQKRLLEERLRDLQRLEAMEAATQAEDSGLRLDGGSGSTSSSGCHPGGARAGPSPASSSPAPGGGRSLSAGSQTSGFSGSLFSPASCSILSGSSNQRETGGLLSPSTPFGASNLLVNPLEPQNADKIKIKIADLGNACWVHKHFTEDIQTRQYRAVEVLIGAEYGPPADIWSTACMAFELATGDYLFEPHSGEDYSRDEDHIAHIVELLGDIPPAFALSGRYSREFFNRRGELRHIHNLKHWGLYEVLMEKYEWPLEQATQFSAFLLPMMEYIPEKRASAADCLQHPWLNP
Chain of Inhibitor of nuclear factor kappa-B kinase subunit beta (Homo sapiens) (O14920 whole entry, canonical isoform): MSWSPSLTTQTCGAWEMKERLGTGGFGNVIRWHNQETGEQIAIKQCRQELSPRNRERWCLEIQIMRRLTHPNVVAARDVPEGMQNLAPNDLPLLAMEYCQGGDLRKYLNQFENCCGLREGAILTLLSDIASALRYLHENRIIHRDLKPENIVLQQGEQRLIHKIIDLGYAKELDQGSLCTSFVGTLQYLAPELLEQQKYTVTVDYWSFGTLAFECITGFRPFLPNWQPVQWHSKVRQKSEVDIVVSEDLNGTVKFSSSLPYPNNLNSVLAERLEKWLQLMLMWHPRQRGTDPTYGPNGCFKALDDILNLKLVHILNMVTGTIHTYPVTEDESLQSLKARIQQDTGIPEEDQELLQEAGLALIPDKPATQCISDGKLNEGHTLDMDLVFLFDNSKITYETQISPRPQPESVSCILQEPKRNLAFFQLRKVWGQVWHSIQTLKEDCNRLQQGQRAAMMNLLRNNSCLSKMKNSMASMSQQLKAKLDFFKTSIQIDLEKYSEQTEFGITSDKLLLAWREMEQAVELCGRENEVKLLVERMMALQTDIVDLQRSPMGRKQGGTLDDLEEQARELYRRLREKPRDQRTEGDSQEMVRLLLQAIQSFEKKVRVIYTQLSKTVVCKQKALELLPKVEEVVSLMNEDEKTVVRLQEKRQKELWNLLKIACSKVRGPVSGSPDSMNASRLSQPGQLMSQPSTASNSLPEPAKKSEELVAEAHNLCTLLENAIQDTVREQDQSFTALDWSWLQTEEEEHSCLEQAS
Chain of 5'-AMP-activated protein kinase catalytic subunit alpha-2 (Homo sapiens) (P54646 whole entry, looked up): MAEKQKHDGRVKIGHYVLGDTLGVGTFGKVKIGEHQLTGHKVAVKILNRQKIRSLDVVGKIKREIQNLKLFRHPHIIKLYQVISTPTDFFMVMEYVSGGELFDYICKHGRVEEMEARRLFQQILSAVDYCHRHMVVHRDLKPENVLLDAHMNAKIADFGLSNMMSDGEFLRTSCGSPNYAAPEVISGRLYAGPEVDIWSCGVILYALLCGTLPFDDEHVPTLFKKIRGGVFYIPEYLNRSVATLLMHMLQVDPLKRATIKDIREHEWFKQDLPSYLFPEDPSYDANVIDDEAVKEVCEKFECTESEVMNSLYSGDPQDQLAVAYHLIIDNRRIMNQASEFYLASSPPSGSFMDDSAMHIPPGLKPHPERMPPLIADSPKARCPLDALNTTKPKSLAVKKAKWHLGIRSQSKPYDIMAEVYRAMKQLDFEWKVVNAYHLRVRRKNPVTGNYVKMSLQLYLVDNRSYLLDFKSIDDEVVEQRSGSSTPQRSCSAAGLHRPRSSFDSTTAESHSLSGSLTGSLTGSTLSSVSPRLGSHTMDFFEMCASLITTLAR
Chain of Cyclin-dependent kinase 9 (Homo sapiens) (P50750 whole entry): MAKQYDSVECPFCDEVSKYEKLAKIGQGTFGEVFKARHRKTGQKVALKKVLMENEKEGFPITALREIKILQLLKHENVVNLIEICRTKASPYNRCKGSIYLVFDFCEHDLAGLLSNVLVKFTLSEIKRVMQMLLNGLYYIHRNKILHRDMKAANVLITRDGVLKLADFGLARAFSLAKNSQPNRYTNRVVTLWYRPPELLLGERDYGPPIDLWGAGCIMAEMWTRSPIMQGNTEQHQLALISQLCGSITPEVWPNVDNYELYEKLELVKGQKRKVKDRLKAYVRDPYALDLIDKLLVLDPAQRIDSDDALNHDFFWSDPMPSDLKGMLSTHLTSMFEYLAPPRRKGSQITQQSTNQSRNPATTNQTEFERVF
Chain of MAP kinase-interacting serine/threonine-protein kinase 2 (Homo sapiens) (Q9HBH9 whole entry, looked up): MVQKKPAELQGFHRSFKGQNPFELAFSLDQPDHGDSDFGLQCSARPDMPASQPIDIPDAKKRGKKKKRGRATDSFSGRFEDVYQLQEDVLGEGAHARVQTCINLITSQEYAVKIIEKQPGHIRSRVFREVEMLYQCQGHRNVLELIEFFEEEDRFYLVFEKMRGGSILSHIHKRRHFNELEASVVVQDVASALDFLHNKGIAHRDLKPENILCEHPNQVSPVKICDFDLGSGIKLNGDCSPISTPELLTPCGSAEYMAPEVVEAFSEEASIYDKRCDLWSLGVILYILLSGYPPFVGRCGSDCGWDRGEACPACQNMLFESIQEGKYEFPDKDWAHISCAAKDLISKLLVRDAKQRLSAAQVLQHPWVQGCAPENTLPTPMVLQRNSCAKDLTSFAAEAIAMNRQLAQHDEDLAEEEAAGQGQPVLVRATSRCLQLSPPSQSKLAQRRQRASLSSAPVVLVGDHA

Cc1c[nH]c2nccc(Oc3c(F)cc(Nc4cc(Cl)nc(N)n4)cc3F)c12 [BAY-549]
inactive: residual activity [1] 69% | residual activity [2] 51% | residual activity [3] 78% | residual activity [4] 69% | residual activity [5] 89% | residual activity [6] 96% | residual activity [7] 96% | residual activity [8] 81% | residual activity [9] 100% | residual activity [10] 89% | residual activity [11] 78% | residual activity [12] 65% | residual activity [13] 98% | residual activity [14] 100% | residual activity [15] 98% | residual activity [16] 99% | residual activity [17] 90% | residual activity [18] 85% | residual activity [19] 100% | residual activity [20] 89% | residual activity [21] 87% | inhibition [22] 2.1% | residual activity [23] 85% | residual activity [24] 92% | residual activity [25] 90% | inhibition [26] 9.29% | residual activity [27] 100%

Cn1cc(Cl)c2c(Oc3c(F)cc(Nc4cc(Cl)nc(N)n4)cc3F)ccnc21 [BAY-4900]
inactive: residual activity [1] 92% | residual activity [2] 51% | residual activity [3] 93% | residual activity [4] 87% | residual activity [5] 98% | residual activity [6] 100% | residual activity [7] 100% | residual activity [8] 100% | residual activity [9] 100% | residual activity [10] 97% | residual activity [11] 100% | residual activity [12] 85% | residual activity [13] 81% | residual activity [14] 100% | residual activity [15] 100% | residual activity [16] 100% | residual activity [17] 82% | residual activity [18] 85% | residual activity [19] 100% | residual activity [20] 100% | residual activity [21] 100% | inhibition [22] -5.34% | residual activity [23] 85% | residual activity [24] 83% | residual activity [25] 90% | inhibition [26] -1.63% | residual activity [27] 75%
